Source: patent US20130102538A1, “METHOD OF TREATING ALZHEIMER'S DISEASE USING PHARMACOLOGICAL CHAPERONES TO INCREASE PRESENILIN FUNCTION AND GAMMA-SECRETASE ACTIVITY” (AMICUS THERAPEUTICS, INC., priority 2010, published 2013)
Entries after “also recorded” stand apart in the source; their conditions may differ. Non-standard residues stand in square brackets, D forms with d. Residues, ends and D or L forms follow the SMILES beside them. ξ: configuration not given here. *: point of attachment. Cbz = O=C(OCc1ccccc1)*; Boc = CC(C)(C)OC(=O)*; ξNle = CCCCC(N)C(=O)O

What was measured:
PS1 precursor [1] = target: T1, PS1 precursor (Homo sapiens, UniProt P49768); test: Screening of γ-secretase inhibitors for PS1 precursor (holo) enhancement, western blot; type: cell-based; set-up: key to PS1 Precursor Enhancement: −: no effect; +: some effect; ++: moderate effect; +++: strong effect; conditions: ~50 uM inhibitor, 24 hrs; for PS1 Precursor Enhancement: SH-SY5Y neuroblastoma cells; for PS1 precursor (45 kDa band) level / stabilization: SY5Y neuroblastomas
T1 construct: The unprocessed or precursor form of PS1 is evidenced by a band at 45 kDa; endogenous in cells; host or cells: SH-SY5Y neuroblastoma cells
Method: Eighteen different γ-secretase inhibitors (purchased from Calbiochem) were tested for their ability to stabilize the PS1 precursor. SH-SY5Y neuroblastoma cells (1e6) incubated in 6-well plates were dosed with ˜50 uM γ-secretase inhibitor (10% FBS, DMEM) for 24 hrs. Cells were lysed in 2% CHAPS (TBS+protease inhibitors), cell debris pelleted at 18,000 g. Total protein in cell lysates were determined by BCA and 25 ug of protein/lane loaded onto 4-12% BisTris NuPage gels (Invitrogen) that were electrophoresed at 150V for 1 hr. Gels were transferred to PVDF (25V, 1 hr) and probed with anti-N-term PS1 (1:1000, Abcam cat. #ab10281). Western blots were developed using chemiluminescence and imaged using an Alpha Innotech FluorChem Q imaging system. Γ-secretase inhibitors tested: PME, XX, XVII, X, IX, IV, II, I-40, VII, V, III, II-40, I, XIII, XVI, XIX, XXI, CW.
The mature form of PS1 (where PS1 is processed to form a heterodimer) is evidenced by a prominent band at 27 kDa (developed using an antibody specific for the N-terminus of PS1) and is present in all samples. […] The increase in PS1 precursor protein level is interpreted as stabilization of the PS1 precursor and the stabilization appears to be mechanistically distinct from the inhibition of γ-secretase activity since there is no correlation between γ-secretase inhibitory potency (IC50 for Abeta production) and levels of stabilized PS1 precursor (see Table 1).

γ-secretase = γ-secretase (Homo sapiens, UniProt P49768); conditions: known IC50s of the inhibitors; read-out: IC50 (Abeta production); cited from earlier work
mature PS1 = target: T2, mature PS1 (Homo sapiens, UniProt P49768); test: Mature PS1 dose response to four day treatment, western blot; type: cell-based; conditions: SY5Y neuroblastomas, four days of treatment, different concentrations
T2 construct: The mature form of PS1 (where PS1 is processed to form a heterodimer) is evidenced by a prominent band at 27 kDa; The mature form of presenlin is a heterodimer consisting of a ˜30 kDa NH2-terminal fragment (NTF) and a ˜20 kDa C-terminal fragment; endogenous in cells; host or cells: SH-SY5Y neuroblastoma cells
Method: SY5Y neuroblastomas grown in 6-well plates were dosed with different concentrations of γ-secretase inhibitors IX, XXI, and XX for four days, after which the cells were harvested by centrifugation (5000 g, 5 min.), lysed in RIPA buffer (TBS, 1% TX100, 0.5% taurodeoxycholate, 0.1% SDS plus protease inhibitors) and cleared of unsolubilized cell debris by centrifugation (15,000 g, 10 min., 4 C). Total protein was determined by BCA and equivalent protein loads of 50 ug/lane were separated on a 4-12% BisTris NuPage polyacrylamide gel (Invitrogen) then transferred to PVDF (25V, 1 hr in NuPage Transfer buffer). Western blots were probed with anti-N-term PS1 (1:1000, Abcam cat. #ab10281) followed by development using an anti-rabbit alkaline phosphatase conjugate, chemiluminescence detection and imaged using an Alpha Innotech FluorChem Q imaging system. After PS1 bands were quantified using the FluorChem Q band analysis software, blots were stripped and re-probed for actin (rabbit anti-actin, Pierce Chemicals).

γ-secretase complex = target: T3, γ-secretase complex (Homo sapiens, UniProt P49768); test: Native gel of intact γ-secretase complex from treated fibroblasts; type: cell-based; conditions: wildtype fibroblasts CRL2076, 0-100 uM for 24 hrs, 6 hr wash out
T3 construct: The mature form of presenlin is a heterodimer consisting of a ˜30 kDa NH2-terminal fragment (NTF) and a ˜20 kDa C-terminal fragment; host or cells: wild-type fibroblasts CRL2076
Method: Wildtype fibroblasts (CRL2076) in a 6-well plate were treated with different doses of γ-secretase inhibitor IV (0, 3.1, 6.25, 12.5, 25 and 100 uM) for 24 hrs, followed by a 6 hr wash out period. Fibroblasts were harvested by gentle scraping in TBS, collected by centrifugation (5000 g, 5 min) and lysed in 1% digitonin (50 mM NaCl, 50 mM Hepes, pH 7.3) overnight at 4° C. Nonsolubilized cell debris was removed by centrifugation (15,000 g, 10 min.). Total protein was determined by BCA and equivalent proteins loads of 40 ug/lane were separated on a 4-16% native BisTris polyacrylamide gel using Blue-Native cathode and anode buffer system (Invitrogen). The native gel was transferred to PVDF (25V, 1 hr in NuPage Transfer buffer), blocked with Blotto (Pierce) and probed with anti-N-term PS1 (1:1000, Abcam cat. #ab10281) followed by development using an anti-rabbit alkaline phosphatase conjugate, chemiluminescence detection and imaged using an Alpha Innotech FluorChem Q imaging system.

PS1 precursor [2] = test: Time course of PS1 precursor enhancement, western blot; type: cell-based, human; conditions: 10 uM, lymphoblast cell line AG07622
Method: Lymphoblast cell line AG07622 was dosed in 6-well plates with 10 uM of γ-secretase inhibitor X (in 10% FBS, DMEM) for 0 hrs, 2 hrs, 4 hrs, 6 hrs and 24 hrs. Control samples containing 1% DMSO were ran in parallel to the drug treated lymphoblasts. After the specified dosing time, cells were harvested by centrifugation (5000 g, 5 min.), lysed in 2% CHAPS/TBS (with protease inhibitors) and cleared of unsolubilized cell debris by centrifugation (15,000 g, 10 min., 4 C). Total protein was determined by BCA and equivalent proteins loads of 40 ug/lane were separated on a 4-12% BisTris NuPage polyacrylamide gel (Invitrogen) then transferred to PVDF (25V, 1 hr in NuPage Transfer buffer). Western blots were probed with anti-N-term. PS1 (1:1000, Abcam cat. #ab 10281) followed by development using an anti-rabbit alkaline phosphatase conjugate, chemiluminescence detection and imaged using an Alpha Innotech FluorChem Q imaging system.

Row | Compound | PS1 Precursor Enhancement (PS1 precursor [1]) | PS1 precursor (45 kDa band) level / stabilization (PS1 precursor [1]) | mature PS1 protein levels (mature PS1) | IC50 (γ-secretase) [nM] | band intensity / level of the γ-secretase complex (γ-secretase complex) | time at which increase in PS1 precursor is first evident (PS1 precursor [2]) [h] | time at which maximum PS1 precursor level is reached (PS1 precursor [2]) [h]
1 | (11S)-19-tert- butyl 1-methyl 2,14-di- sec-butyl-9,9-difluoro- 5,17-diisopropyl-11- methyl-4,8,10,15,18- pentaoxo-3,6,7,12,13,16- hexaazanon | + | significantly increased |  | 13000 |  |  | 
2 | C[C@H](NC(=O)Cc1cc(F)cc(F)c1)C(=O)N[C@H](C(=O)OC(C)(C)C)c1ccccc1 [IX, (S)-tert-butyl 2-((S)-2-(2-(3,5-difluorophenyl)acetamido)propanamido)-2-phenylacetate] | − | does not stabilize the PS1 precursor | dose dependent increase |  |  |  | 
3 | CCCCC(C=O)NC(=O)[C@H](CC(C)C)NC(=O)[C@@H](CC(C)C)NC(=O)OCc1ccccc1 (stereo partly drawn) [I, benzyl ((2R)-4-methyl-1-(((2S)-4-methyl-1-oxo-1-((1-oxohexan-2-yl)amino)pentan-2-yl)amino)-1-oxopentan-2-yl)carbamate] (Cbz-[dL]-Leu-[ξNle]-aldehyde) | + | significantly increased |  |  |  |  | 
4 | CC(C)C[C@@H](C=O)NC(=O)[C@@H](CC(C)C)NC(=O)OCc1ccccc1 [III] | − |  |  | 35000 |  |  | 
5 | CCC(C)C(NC(=O)C=Cc1cc(OC)cc(OC)c1)C(=O)NC(C=O)CC(C)C (stereo not drawn) [I-40, trans-3,5-DMC-Ile-Leu-CHO] | − | significantly increased |  | 15000 |  |  | 
6 | CC(C)[C@H](NC(=O)c1ccc2ccccc2c1)C(=O)N[C@H](C=O)Cc1ccccc1 [IV, N-((S)-3-methyl-1-oxo-1-(((S)-1-oxo-3-phenylpropan-2-yl)amino)butan-2-yl)-2-naphthamide] | ++ | significantly increased |  | 2600 | increased levels of the γ-secretase complex; also recorded: increases as a function of increasing concentration |  | 
7 | C[C@H](NC(=O)Cc1cc(F)cc(F)c1)C(=O)N[C@@H]1C(=O)N(C)c2ccccc2-c2ccccc21 [XX, (S)-2-(2-(3,5-difluoro-phenyl)acetamido)-N-((S)-5-methyl-6-oxo-6,7-dihydro-5H-dibenzo[b,d]azepin-7-yl)propanamide] | +++ | significantly increased; also recorded: do stabilize the PS1 precursor | dose dependent increase | 1.7 |  |  | 
8 | CC(C)CC(C=O)NC(=O)C(CC(C)C)NC(=O)OC1CC(C)CCC1C(C)C (stereo not drawn) [VII] | − |  |  | 2300 |  |  | 
9 | (2R,3R)- 3-(3,4-difluorophenyl)- 2-(4-fluorophenyl)-4- hydroxy-N-((S)-2-oxo-5- phenyl-2,3-dihydro-1H- benzo[e][1,4]diazepin-3- yl)butanamide [XIX] | + | significantly increased |  | 0.06 |  |  | 
10 | CC(C)C(C=O)NC(=O)C(NC(=O)CNC(=O)OC(C)(C)C)C(C)C (stereo not drawn) [II-40] (Boc-Gly-Val-Val-aldehyde; configuration not given here) | − |  |  |  |  |  | 
11 | O=C(O)c1cc(Oc2ccc([N+](=O)[O-])cc2)cc(Oc2ccc([N+](=O)[O-])cc2)c1 [CW] | − |  |  |  |  |  | 

Further lines, with some results ahead:

Row | PS1 Precursor Enhancement (PS1 precursor [1]) | PS1 precursor (45 kDa band) level / stabilization (PS1 precursor [1]) | mature PS1 protein levels (mature PS1) | Compound | IC50 (γ-secretase) [nM] | band intensity / level of the γ-secretase complex (γ-secretase complex) | time at which increase in PS1 precursor is first evident (PS1 precursor [2]) [h] | time at which maximum PS1 precursor level is reached (PS1 precursor [2]) [h]
12 | − |  |  | CC(C)CC(NC(=O)OCc1ccccc1)C(=O)NC(C=O)Cc1ccccc1 (stereo not drawn) [V] (Cbz-Leu-Phe-aldehyde; configuration not given here) | 5000 |  |  | 
13 | − |  |  | COC(=O)[C@@H](NC(=O)[C@H](C)NC(=O)Cc1cc(F)cc(F)c1)c1ccccc1 [XVI] | 10 |  |  | 
14 | + | significantly increased |  | CCC(C)C(NC(=O)[C@H](Cc1ccc(O)cc1)NC(=O)OCc1ccccc1)C(=O)N[C@H](C=O)CC(C)C (stereo partly drawn) [XIII, benzyl ((2S)-3-(4-hydroxyphenyl)-1-((3-methyl-1-(((S)-4-methyl-1-oxopentan-2-yl)amino)-1-oxopentan-2-yl)amino)-1-oxopropan-2-yl)carbamate] | 8 |  |  | 
15 | − |  |  | COC(=O)[C@@H](NC(=O)[C@H](CC(C)C)NC(=O)N(Cc1ccccc1)C[C@@H](O)[C@H](Cc1ccccc1)NC(=O)OC(C)(C)C)C(C)C [XVII, (6S,7R,12S,15S)-methyl 6,9-dibenzyl-7-hydroxy-12-isobutyl-15-isopropyl-2,2-dimethyl-4,10,13-trioxo-3-oxa-5,9,11,14-tetraazahexadecan-16-oate] | 300 |  |  | 
16 | +++ | significantly increased |  | CC(C)C[C@H](NC(=O)[C@H](Cc1ccccc1)C[C@@H](O)[C@H](Cc1ccccc1)NC(=O)OC(C)(C)C)C(=O)N[C@@H](Cc1ccccc1)C(N)=O [X, tert-butyl ((2S,3R,5R)-6-(((S)-1-(((S)-1-amino-1-oxo-3-phenylpropan-2-yl)amino)-4-methyl-1-oxopentan-2-yl)amino)-5-benzyl-3-hydroxy-6-oxo-1-phenylhexan-2-yl)carbamate] | 17 |  | 2 | 24
